From ChEMBL document CHEMBL1201862, “PubChem BioAssay data set” (2004) come the findings set out here.

The structures appear in SMILES notation.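 Briefly, cells in 96-well plates were exposed to five compound concentrations for 48 h, and endpoints were estimated by linear interpolation. Here, GI50 denotes the concentration required for 50% inhibition of growth.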 The source made the active and inactive calls. No stated cut-off is given here; in the data, active = GI50 up to about 1.1 µM and inactive = higher. A value given as a limit tells only on which side of the number the result lay.

Among the test systems are HCT-15; KM12; SN12C; SF-295; HCT-116; UO-31; SK-MEL-28; MCF7; LOX IMVI; SK-MEL-5; SF-268; A498; SK-OV-3; DU-145; HL-60; CCRF-CEM; NCI-H226; SR; NCI-H522.
Common to all, as to assay: growth of human tumour cells (NCI), 48 h

On to `Sc1nnc(CCCCCCCCc2nnc(S)o2)o1`, for which the GI50 is > 100 µM with HCT-15; > 100 µM (inactive) in the experiment with KM12; > 100 µM (inactive) in the experiment with SN12C; > 100 µM (inactive) in the experiment with SF-295; > 100 µM (inactive) in the experiment with HCT-116; > 100 µM (inactive) in the experiment with UO-31. Moreover, the GI50 in the experiment with SK-MEL-28, with MCF7, in the experiment on LOX IMVI, in the experiment with SK-MEL-5, with SF-268 and in the experiment with A498 was > 100 µM (inactive) each time. Also, the GI50 with SK-OV-3, in the experiment on DU-145, in the experiment on HL-60, in the experiment on CCRF-CEM and in the experiment with NCI-H226 was > 100 µM (inactive) in each case.

Take `COc1cc(Cn2c3c(c4cc(O)ccc42)Cc2ccccc2C3=O)cc(OC)c1`: the GI50 is 33.9 µM in the experiment on HCT-15; 39.2 µM (inactive) with KM12; 24.7 µM (inactive) in the experiment on SN12C; 25.8 µM (inactive) in the experiment on SF-295; 34.4 µM (inactive) in the experiment on HCT-116; > 100 µM (inactive) with UO-31. For the same compound, the GI50 with SK-MEL-28 is 31.8 µM (inactive); in the experiment with MCF7, 20.7 µM (inactive); in the experiment with LOX IMVI, 76.4 µM (inactive); in the experiment on SK-MEL-5 it was 35.7 µM (inactive); with SR, 6.46 µM (inactive); in the experiment with SF-268, > 100 µM (inactive). Also, the GI50 in the experiment on A498 was > 100 µM (inactive); in the experiment with SK-OV-3, > 100 µM (inactive); in the experiment with DU-145, 58.1 µM (inactive); in the experiment on HL-60, > 100 µM (inactive); in the experiment on CCRF-CEM, 22.6 µM (inactive); in the experiment on NCI-H226, > 100 µM (inactive).

Take `O=c1oc2ccccc2cc1-c1cc2ccccn2c1`: the GI50 in the experiment with HCT-15 was > 100 µM; in the experiment on KM12, > 100 µM (inactive); in the experiment with SF-295, > 100 µM (inactive); with HCT-116 it was > 100 µM (inactive); in the experiment with UO-31, > 100 µM (inactive); in the experiment with SK-MEL-28, > 100 µM (inactive). Besides, the GI50 with MCF7 is 0.5 µM (active); with LOX IMVI, > 100 µM (inactive); with SK-MEL-5 it was > 100 µM (inactive); in the experiment with SF-268, > 100 µM (inactive); in the experiment with A498, > 100 µM (inactive); with SK-OV-3 it was > 100 µM (inactive). In addition, the GI50 in the experiment with DU-145, with HL-60, in the experiment with CCRF-CEM, in the experiment on NCI-H522 and in the experiment with NCI-H226 was > 100 µM (inactive) in each case.

Take `CCC1C(C#N)=C(N)OC2=C1C(=O)CC(C)(C)C2` (stereo unspecified): the GI50 in the experiment with HCT-15 is > 100 µM; in the experiment on KM12 it was > 100 µM (inactive); in the experiment on SN12C, > 100 µM (inactive); with SF-295, > 100 µM (inactive); with HCT-116, > 100 µM (inactive); in the experiment on SK-MEL-28, > 100 µM (inactive). Moreover, the GI50 with MCF7, in the experiment on LOX IMVI, in the experiment on SK-MEL-5, in the experiment with SF-268, with A498 and in the experiment on SK-OV-3 was > 100 µM (inactive) each time. Also, the GI50 in the experiment with DU-145, in the experiment on HL-60, in the experiment with CCRF-CEM and in the experiment on NCI-H522 was > 100 µM (inactive) each time.

For `O=c1cn[nH]c(=S)n1/N=C/c1c[nH]c2ccccc12`, the GI50 in the experiment with HCT-15 is 31.4 µM; in the experiment on KM12 it was > 100 µM (inactive); in the experiment on SF-295 it was > 100 µM (inactive); with HCT-116 it was > 100 µM (inactive); in the experiment on UO-31, > 100 µM (inactive); in the experiment on SK-MEL-28, > 100 µM (inactive). Moreover, the GI50 was 45.7 µM (inactive) in the experiment on MCF7; 30 µM (inactive) with LOX IMVI; > 100 µM (inactive) in the experiment with SK-MEL-5; 45.3 µM (inactive) with SR; > 100 µM (inactive) in the experiment with SF-268; > 100 µM (inactive) with A498. Further, the GI50 is > 100 µM (inactive) in the experiment on SK-OV-3; > 100 µM (inactive) in the experiment with DU-145; 14.5 µM (inactive) in the experiment on HL-60; 11.3 µM (inactive) with CCRF-CEM; 39.1 µM (inactive) in the experiment with NCI-H522.

As for `Oc1cc2cc(-c3ccccc3)[nH]c2c2ccccc12`, the GI50 was 27.1 µM with HCT-15; 27.4 µM (inactive) with KM12; 28.8 µM (inactive) with SN12C; 7.1 µM (inactive) in the experiment with SF-295; 17.1 µM (inactive) in the experiment on HCT-116; 19.2 µM (inactive) with UO-31. The GI50 with SK-MEL-28 was 42.3 µM (inactive); in the experiment with LOX IMVI, 16.1 µM (inactive); in the experiment with SK-MEL-5 it was 14.1 µM (inactive); in the experiment with SR it was > 57 µM (inactive); with SF-268 it was 47.1 µM (inactive); with A498, > 100 µM (inactive). In addition, the GI50 is > 77.8 µM (inactive) in the experiment with SK-OV-3; 8.15 µM (inactive) in the experiment with HL-60; 28.6 µM (inactive) in the experiment on CCRF-CEM; 15.3 µM (inactive) in the experiment on NCI-H522; > 100 µM (inactive) with NCI-H226.

With `CCC1=CC2CN3Cn4c(c(COCc5c6n(c7ccccc57)CN5CC7C=C(CC)C5C6(C(=O)OC)C7)c5ccccc54)C(C(=O)OC)(C2)C13`, the GI50 with HCT-15 was > 100 µM; in the experiment with KM12 it was > 100 µM (inactive); in the experiment on SN12C, > 100 µM (inactive); in the experiment on SF-295, > 100 µM (inactive); with HCT-116 it was > 100 µM (inactive); in the experiment with UO-31 it was > 100 µM (inactive). Moreover, the GI50 with SK-MEL-28 was > 100 µM (inactive); in the experiment on LOX IMVI, > 100 µM (inactive); in the experiment with SK-MEL-5 it was > 100 µM (inactive); with SR, > 100 µM (inactive); in the experiment on SF-268 it was 66.8 µM (inactive); with A498 it was > 100 µM (inactive). Besides, the GI50 in the experiment on SK-OV-3 was 92.5 µM (inactive); with HL-60, > 100 µM (inactive); in the experiment on CCRF-CEM, > 100 µM (inactive); in the experiment on NCI-H522, > 100 µM (inactive); in the experiment on NCI-H226 it was > 100 µM (inactive).

Consider `Cc1ccc(S(=O)(=O)N/N=C(\c2nc3ccc(Cl)cc3nc2O)C(O)c2cccc([N+](=O)[O-])c2)cc1` (stereo unspecified), for which the GI50 with HCT-15 is > 100 µM; with KM12, > 100 µM (inactive); in the experiment on SN12C, > 100 µM (inactive); in the experiment on SF-295 it was > 100 µM (inactive); in the experiment with HCT-116, > 100 µM (inactive); with UO-31, > 100 µM (inactive). In addition, the GI50 with SK-MEL-28, with LOX IMVI, in the experiment on SK-MEL-5, in the experiment on SR, in the experiment on SF-268 and with A498 was > 100 µM (inactive) each time. The GI50 is > 100 µM (inactive) with SK-OV-3; > 100 µM (inactive) with HL-60; 52.7 µM (inactive) with CCRF-CEM; 63.4 µM (inactive) in the experiment with NCI-H522; > 100 µM (inactive) in the experiment on NCI-H226.
